molecular target: Adenosine receptor A1 (Mesocricetus auratus); assay: Inhibition of specific binding of [3H]CPX to the A1 adenosine receptor in DDT1 MF-2 (DDT) cells.

Row | Structure (SMILES) | IC50
1 | CCCn1c(=O)c2[nH]c(CNC(=O)CBr)nc2n(CCC)c1=O [2-Bromo-N-(2,6-dioxo-1,3-dipropyl-2,3,6,7-tetrahydro-1H-purin-8-ylmethyl)-acetamide] | 11 µM
2 | CCCn1c(=O)c2[nH]c(CCNC(=O)CBr)nc2n(CCC)c1=O [2-Bromo-N-[2-(2,6-dioxo-1,3-dipropyl-2,3,6,7-tetrahydro-1H-purin-8-yl)-ethyl]-acetamide] | 4 µM
3 | CCCn1c(=O)c2[nH]c(-c3ccc(Cl)c([N+](=O)[O-])c3)nc2n(CCC)c1=O [8-(4-Chloro-3-nitro-phenyl)-1,3-dipropyl-3,7-dihydro-purine-2,6-dione] | 7 µM
4 | CCCn1c(=O)c2[nH]c(CCCCCNC(=O)CBr)nc2n(CCC)c1=O [2-Bromo-N-[5-(2,6-dioxo-1,3-dipropyl-2,3,6,7-tetrahydro-1H-purin-8-yl)-pentyl]-acetamide] | 1.2 µM
5 | CCCn1c(=O)c2[nH]c(CCNC(=O)c3ccc(S(=O)(=O)F)cc3)nc2n(CCC)c1=O [4-[2-(2,6-Dioxo-1,3-dipropyl-2,3,6,7-tetrahydro-1H-purin-8-yl)-ethylcarbamoyl]-benzenesulfonyl fluoride] | 0.7 µM
6 | O=C(OCCCn1c(=O)c2[nH]c(C3CCCC3)nc2n(CCCOC(=O)c2ccc(S(=O)(=O)F)cc2)c1=O)c1ccc(S(=O)(=O)F)cc1 [8-cyclopentyl-1,3-di[3-(4-fluorosulfonylphenylcarbonyloxy)propyl]-2,6-dioxo-2,3,6,7-tetrahydro-1H-purine] | 3.5 µM
7 | CCCn1c(=O)c2[nH]c(CCCNC(=O)c3cccc(S(=O)(=O)F)c3)nc2n(CCC)c1=O [3-[3-(2,6-Dioxo-1,3-dipropyl-2,3,6,7-tetrahydro-1H-purin-8-yl)-propylcarbamoyl]-benzenesulfonyl fluoride] | 2.6 µM
8 | CCCn1c(=O)c2[nH]c(C3CCCC3)nc2n(CCCOC(=O)c2cccc(S(=O)(=O)F)c2)c1=O [3-Fluorosulfonyl-benzoic acid 3-(8-cyclopentyl-2,6-dioxo-1-propyl-1,2,6,7-tetrahydro-purin-3-yl)-propyl ester] | 0.02 µM
9 | CCCn1c(=O)c2[nH]c(CNC(=O)c3ccccc3)nc2n(CCC)c1=O [N-(2,6-Dioxo-1,3-dipropyl-2,3,6,7-tetrahydro-1H-purin-8-ylmethyl)-benzamide] | 6.3 µM
10 | CCCn1c(=O)c2[nH]c(C3CCC(OC(=O)c4ccc(S(=O)(=O)F)cc4)C3)nc2n(CCC)c1=O (centres undefined) [4-Fluorosulfonyl-benzoic acid 3-(2,6-dioxo-1,3-dipropyl-2,3,6,7-tetrahydro-1H-purin-8-yl)-cyclopentyl ester] | 0.06 µM
11 | CCCn1c(=O)c2[nH]c(CNC(=O)c3ccc(S(=O)(=O)F)cc3)nc2n(CCC)c1=O [4-[(2,6-Dioxo-1,3-dipropyl-2,3,6,7-tetrahydro-1H-purin-8-ylmethyl)-carbamoyl]-benzenesulfonyl fluoride] | 2 µM
12 | CCCn1c(=O)c2[nH]c(NC(=O)c3cccc(S(=O)(=O)F)c3)nc2n(CCC)c1=O [3-(2,6-Dioxo-1,3-dipropyl-2,3,6,7-tetrahydro-1H-purin-8-ylcarbamoyl)-benzenesulfonyl fluoride] | 3.5 µM
13 | CCCn1c(=O)c2[nH]c(CCCCCN3C(=O)C=CC3=O)nc2n(CCC)c1=O [8-[5-(2,5-Dioxo-2,5-dihydro-pyrrol-1-yl)-pentyl]-1,3-dipropyl-3,7-dihydro-purine-2,6-dione] | 2.2 µM
14 | CCCn1c(=O)c2[nH]c(NC(=O)c3ccc(S(=O)(=O)F)cc3)nc2n(CCC)c1=O [4-(2,6-Dioxo-1,3-dipropyl-2,3,6,7-tetrahydro-1H-purin-8-ylcarbamoyl)-benzenesulfonyl fluoride] | 4.2 µM
